These molecules were tested on HBV (assay: HBV inhibition assay in HepAD38 cells (extracellular HBV DNA by direct qPCR)). Settings: Hepatitis B virus, 8-point dose-response curve, 96 hours, read-out: HBV inh EC50.
Type: cell-based
Description: HepAD38 cell line (Ladner et al., Antimicrob Agents Chemother, 1997, 41, 1715-20) was used for HBV inhibition assays. HepAD38 is a subclone, derived from Hepatoblastoma cell line HepG2 (ATCC® Number: HB-8065™), that expresses HBV genome under the control of a tetracycline-responsive promoter in a TET-OFF system: addition of tetracycline suppresses HBV replication, while its removal switches on the process allowing HBV viral particles release in the cell supernatant. HepAD38 cell line is maintained in DMEM/F12, supplemented with 10% of fetal bovine serum, 1% of glutamine, 1% of penicillin/streptomycin, 0.4 mg/ml G418 and 0,3 ug/ml tetracycline. For the HBV inhibition assay, doxycycline-free medium is used in order to allow virion production.
HBV inhibition activity in vitro was performed in 96 multiwell plates. During the initial (primary) screening compounds were first tested in triplicates at concentrations of 0.1µM, 0.5µM amd 1µM. For selected compounds, an 8-point dose-response curve can be obtained using 1:2 serial dilutions (starting from 2.5 µM, 1.25µM or 0.4 µM, depending on the degree of inhibition observed during the primary screening). From the dose-response curves, half maximal effective concentration (EC50) can be calculated (see also below).
In more detail, compounds - typically dissolved in DMSO stock solutions - are diluted to 2x the final desired concentration in 100 µl of the above medium (without doxycycline) and plated in three replicates in the 96-well plates.
Simultaneously, HepAD38 cells - extensively pre-washed in tetracycline-free medium in order to induce HBV production - are suspended at 2*10^4 cells in 100 µl of tetracycline-free medium and added to each well of the plate, to yield a final assay volume of 200 µl DMSO - used for stock solutions and compounds dilutions - which is always present in the assays at a final concentration of 0.5%.
Plates are then incubated 96 hours at 37°C and then subjected to cell viability assay in order to define compounds cytotoxicity and to extracellular HBV quantification in order to evaluate antiviral activity of compounds. Cytotoxicity is assessed by a commercial fluorescence assay that measures the metabolic activity of cells, directly related to cell viability (Cell Titer Blue, Promega). Anti-HBV activity was evaluated by quantification of extracellular HBV DNA with direct qPCR. In particular, supernatant was collected and centrifuged for cell debris clarification, viral DNA was extracted from virions by addition of lysis buffer (1 mM 1,4-dithiothreitol, 0.2% sodium dodecyl sulphate) and incubated at 95°C for 10 min. Samples were then diluted 1:40 and real time PCR amplification was performed with SYBR green assay (Power SYBR™ Green PCR Master Mix-Thermo Fisher Scientific) and specific HBV primer (HBV-DF:5'-[…]-3' (SEQ ID No. 1), HBV-DR:5'-[…]-3' (SEQ ID No. 2)).
All HBV inhibition or antiviral activity data are typically reported in percent (%) relative to a non-treated reference sample. Excel and Graphpad Prism programs are typically used for data elaboration and EC50 calculation.
In the case of O=C(Nc1cc(F)c(F)c(F)c1)c1ccc2c(c1)S(=O)(=O)NC(C1CCNCC1)N2 (stereo not shown) [Example E32, 3-(piperidin-4-yl)-N-(3,4,5-trifluorophenyl)-3,4-dihydro-2H-benzo[e][1,2,4]thiadiazine-7-carboxamide 1,1-dioxide], the EC50 is reported as less than 1000 nM.

Same assay, conditions: Hepatitis B virus, compound at 0.1 µM, 96 hours, relative to non-treated reference, read-out: Anti HBV Activity (conc µM)
In the case of CN1CC[C@H](N2C(=O)Nc3ccc(C(=O)Nc4cc(F)c(F)c(F)c4)cc3S2(=O)=O)C1 [Example E85, (S)-2-(1-methylpyrrolidin-3-yl)-3-oxo-N-(3,4,5-trifluorophenyl)-3,4-dihydro-2H-benzo[e][1,2,4]thiadiazine-7-carboxamide 1,1-dioxide], the inhibition at 0.1 µM is reported as less than 50%.
O=C(Nc1cc(F)c(F)c(F)c1)c1ccc2c(c1)S(=O)(=O)N([C@H]1CCNC1)C(=O)N2 [Example E84, (S)-3-oxo-2-(pyrrolidin-3-yl)-N-(3,4,5-trifluorophenyl)-3,4-dihydro-2H-benzo[e][1,2,4]thiadiazine-7-carboxamide 1,1-dioxide] was tested, and the inhibition at 0.1 µM was less than 50%.

Same assay, conditions: Hepatitis B virus, compound at 0.5 µM, 96 hours, relative to non-treated reference, read-out: Anti HBV Activity (conc µM)
For C[C@@H](N1C(=O)Nc2ccc(C(=O)Nc3cc(F)c(F)c(F)c3)cc2S1(=O)=O)C(F)(F)F [Example E77, (R)-3-oxo-N-(3,4,5-trifluorophenyl)-2-(1,1,1-trifluoropropan-2-yl)-3,4-dihydro-2H-benzo[e][1,2,4]thiadiazine-7-carboxamide 1,1-dioxide], the inhibition at 0.5 µM was less than 50%.
In the case of CC1(C)Nc2ccc(C(=O)Nc3cc(F)c(F)c(F)c3)cc2S(=O)(=O)N1 [Example E27, 3,3-dimethyl-N-(3,4,5-trifluorophenyl)-3,4-dihydro-2H-benzo[e][1,2,4]thiadiazine-7-carboxamide 1,1-dioxide], the inhibition at 0.5 µM is reported as greater than 50%.
Molecule O=C(Nc1cc(F)c(F)c(F)c1)c1ccc2c(c1)S(=O)(=O)N(C1CC(O)C1)C(=O)N2 (stereo not shown) [Example E86, 2-(3-hydroxycyclobutyl)-3-oxo-N-(3,4,5-trifluorophenyl)-3,4-dihydro-2H-benzo[e][1,2,4]thiadiazine-7-carboxamide 1,1-dioxide] has an inhibition at 0.5 µM greater than 50%.
In the case of CN1C(C(F)(F)F)Nc2ccc(C(=O)Nc3cc(F)c(F)c(F)c3)cc2S1(=O)=O (stereo not shown) [Example E18, 2-methyl-3-(trifluoromethyl)-N-(3,4,5-trifluorophenyl)-3,4-dihydro-2H-benzo[e][1,2,4]thiadiazine-7-carboxamide1,1-dioxide], the inhibition at 0.5 µM is reported as less than 50%.
O=C(Nc1cc(F)c(F)c(F)c1)c1ccc2c(c1)S(=O)(=O)N(O)CN2 [Example E5, 2-hydroxy-N-(3,4,5-trifluorophenyl)-3,4-dihydro-2H-benzo[e][1,2,4]thiadiazine-7-carboxamide 1,1-dioxide] gave an inhibition at 0.5 µM of less than 50%.
O=C(Nc1cc(F)c(F)c(F)c1)c1ccc2c(c1)S(=O)(=O)N([C@H]1C[C@H](O)C1)CN2 [Example E127, Trans-2-(3-hydroxycyclobutyl)-N-(3,4,5-trifluorophenyl)-3,4-dihydro-2H-benzo[e][1,2,4]thiadiazine-7-carboxamide 1,1-dioxide] gave an inhibition at 0.5 µM of less than 50%.
Work on C[C@@H](O)C1Nc2ccc(C(=O)Nc3cc(F)c(F)c(F)c3)cc2S(=O)(=O)N1 (stereo partly drawn) [Example E24, 3-((R)-1-hydroxyethyl)-N-(3,4,5-trifluorophenyl)-3,4-dihydro-2H-benzo[e][1,2,4]thiadiazine-7-carboxamide 1,1-dioxide] yielded an inhibition at 0.5 µM greater than 50%.
Cc1cc(NC(=O)c2ccc3c(c2)S(=O)(=O)N([C@H]2CC[C@H](O)CC2)C(=O)N3)ccc1F [Example E132, N-(4-fluoro-3-methylphenyl)-2-((1r,4r)-4-hydroxycyclohexyl)-3-oxo-3,4-dihydro-2H-benzo[e][1,2,4]thiadiazine-7-carboxamide 1,1-dioxide] gave an inhibition at 0.5 µM greater than 50%.
For O=C(Nc1cc(F)c(F)c(F)c1)c1ccc2c(c1)S(=O)(=O)N(C1COC1)C(=O)N2 [Example E82, 2-(oxetan-3-yl)-3-oxo-N-(3,4,5-trifluorophenyl)-3,4-dihydro-2H-benzo[e][1,2,4]thiadiazine-7-carboxamide 1,1-dioxide], the inhibition at 0.5 µM was greater than 50%.
For O=C(Nc1cc(F)c(F)c(F)c1)c1ccc2c(c1)S(=O)(=O)N[C@H]1CCC[C@@H]1N2 [Example E95, (3aS, 10aS)-N-(3,4,5-trifluorophenyl)-2,3,3a,4,10,10a-hexahydro-1H-benzo[f]cyclopenta[c][1,2,5]thiadiazepine-7-carboxamide 5,5-dioxide], the inhibition at 0.5 µM was less than 50%.
[2H]C1([2H])Nc2ccc(C(=O)Nc3cc(F)c(F)c(F)c3)cc2S(=O)(=O)N1 [Example E2, N-(3,4,5-trifluorophenyl)-3,4-dihydro-2H-benzo[e][1,2,4]thiadiazine-3,3-d2-7-carboxamide 1,1-dioxide] gave an inhibition at 0.5 µM greater than 50%.

Same assay, conditions: Hepatitis B virus, compound at 1 µM, 96 hours, relative to non-treated reference, read-out: Anti HBV Activity (conc µM)
O=C(Nc1ccc(F)c(F)c1)c1ccc2c(c1)S(=O)(=O)NCN2 [Example E19, N-(3,4-difluorophenyl)-3,4-dihydro-2H-benzo[e][1,2,4]thiadiazine-7-carboxamide 1,1-dioxide] showed an inhibition at 1 µM greater than 50%.
In the case of O=C(Nc1cc(F)c(F)c(F)c1)c1ccc2c(c1)S(=O)(=O)N1CCNCC1CO2 (stereo not shown) [Example E115, N-(3,4,5-trifluorophenyl)-1,2,3,4,12,12a-hexahydrobenzo[b]pyrazino[1,2-e][1,4,5]oxathiazepine-8-carboxamide 6,6-dioxide], the inhibition at 1 µM is reported as less than 50%.
With O=C(Nc1ccc(F)c(F)c1)c1ccc2c(c1)S(=O)(=O)NC1(CCC1)N2 [Example E12, N-(3,4-difluorophenyl)-2H,4H-spiro[benzo[e] [1,2,4]thiadiazine-3,1'-cyclobutane]-7-carboxamide 1,1-dioxide] the inhibition at 1 µM was greater than 50%.
NCC1Nc2ccc(C(=O)Nc3cc(F)c(F)c(F)c3)cc2S(=O)(=O)N1 (stereo not shown) [Example E29, 3-(aminomethyl)-N-(3,4,5-trifluorophenyl)-3,4-dihydro-2H-benzo[e][1,2,4]thiadiazine-7-carboxamide 1,1-dioxide] was tested, and the inhibition at 1 µM was greater than 50%.
Work on O=C(Nc1cc(F)c(F)c(F)c1)c1ccc2c(c1)S(=O)(=O)NC(c1ccc(C(F)(F)F)nc1)N2 (stereo not shown) [Example E42, 3-(6-(trifluoromethyl)pyridin-3-yl)-N-(3,4,5-trifluorophenyl)-3,4-dihydro-2H-benzo[e][1,2,4]thiadiazine-7-carboxamide 1,1-dioxide] yielded an inhibition at 1 µM greater than 50%.
CC1Nc2ccc(C(=O)Nc3ccc(F)c(F)c3)cc2S(=O)(=O)N1 (stereo not shown) [Example E20, N-(3,4-difluorophenyl)-3-methyl-3,4-dihydro-2H-benzo[e][1,2,4]thiadiazine-7-carboxamide 1,1-dioxide] showed an inhibition at 1 µM greater than 50%.
O=C(Nc1cc(F)c(F)c(F)c1)c1ccc2c(c1)S(=O)(=O)N1CCCC1CN2 (stereo not shown) [Example E106, N-(3,4,5-trifluorophenyl)-1,2,3,10,11,11a-hexahydrobenzo[f]pyrrolo[1,2-b][1,2,5]thiadiazepine-7-carboxamide 5,5-dioxide] was tested, and the inhibition at 1 µM was less than 50%.
O=C(Nc1cc(F)c(F)c(F)c1)c1ccc2c(c1)S(=O)(=O)N1CCCC[C@H]1CO2 [Example E113, (S)-N-(3,4,5-trifluorophenyl)-1,2,3,4,12,12a-hexahydrobenzo[b]pyrido[1,2-e][1,4,5]oxathiazepine-8-carboxamide 6,6-dioxide] showed an inhibition at 1 µM of less than 50%.
For CC1Nc2ccc(C(=O)Nc3cc(F)c(F)c(F)c3)cc2S(=O)(=O)N1CCO (stereo not shown) [Example E63, 2-(2-hydroxyethyl)-3-methyl-N-(3,4,5-trifluorophenyl)-3,4-dihydro-2H-benzo[e][1,2,4]thiadiazine-7-carboxamide 1,1-dioxide], the inhibition at 1 µM was less than 50%.
O=C(Nc1cc(F)c(F)c(F)c1)c1ccc2c(c1)S(=O)(=O)n1ccnc1CN2 [Example E109, N-(3,4,5-trifluorophenyl)-10,11-dihydrobenzo[f]imidazo[1,2-b][1,2,5]thiadiazepine-7-carboxamide 5,5-dioxide] was tested, and the inhibition at 1 µM was less than 50%.
Molecule O=C(Nc1cc(F)c(F)c(F)c1)c1ccc2c(c1)S(=O)(=O)N1CCC1CN2 (stereo not shown) [Example E107, N-(3,4,5-trifluorophenyl)-1,9,10,10a-tetrahydro-2H-azeto[1,2-b]benzo[f][1,2,5]thiadiazepine-6-carboxamide 4,4-dioxide] has an inhibition at 1 µM of less than 50%.

— EP3597653A1, “CYCLIC INHIBITORS OF HEPATITIS B VIRUS” (IRBM S.P.A., priority 2018, dated 2020)
